Data: patent US9656990B2, “Cathepsin cysteine protease inhibitors” (Merck Sharp & Dohme Corp., priority 2014, dated 2017)

What was measured:
human cathepsin K = human cathepsin K (UniProt P43236, Y175D/V274L, species not given); test: Cathepsin K Assay; assay type: biochemical; details: IP from dose response curve; Z-Leu-Arg-AMC substrate, pH 5.5; read-out: hrbCat K (IP (nM))
human cathepsin F = target: T1, human cathepsin F (Homo sapiens, UniProt Q9UBX1); test: Cathepsin F Assay; assay type: biochemical; details: IP from dose response curve; Z-Phe-Arg-AMC substrate, pH 5.5; read-out: hCat F (IP (nM))
T1 sequence (Q9UBX1 271-484): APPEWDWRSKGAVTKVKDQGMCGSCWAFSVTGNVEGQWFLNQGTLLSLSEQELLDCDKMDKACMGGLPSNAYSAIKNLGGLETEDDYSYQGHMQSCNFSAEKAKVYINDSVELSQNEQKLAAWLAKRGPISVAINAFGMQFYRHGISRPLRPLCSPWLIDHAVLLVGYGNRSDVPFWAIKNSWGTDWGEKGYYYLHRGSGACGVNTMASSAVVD
In short: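 Human cathepsin F (10 nM) preincubated 15 min at room temperature with compounds in 50 mM MES pH 5.5, 2.5 mM EDTA, 2.5 mM DTT, 10% DMSO. Z-Phe-Arg-AMC (8 μM) added; AMC release read by fluorescence (Ex 360/Em 460 nm) over 20 min, inhibition fit to dose-response model.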

**Q.** CN=S1(=O)CCN(c2ccc(-c3cn(-c4ncccc4F)nc3[C@@H]3CC(F)(F)CC[C@H]3C(=O)N[C@@H](C)C#N)cc2)CC1 [Example 46, (1R,2R)-N-((S)-1-cyanoethyl)-4,4-difluoro-2-(1-(3-fluoropyridin-2-yl)-4-(4-(1-(methylimino)-1-oxidothiomorpholino)phenyl)-1H-pyrazol-3-yl)cyclohexanecarboxamide] was tested. Which IC50 (human cathepsin K) did it give?
**A.** Its IC50 is 5.78 nM.

**Q.** What about the IC50 (human cathepsin F) of the same molecule?
**A.** Its IC50 is 6620 nM.

**Q.** How did the IC50 (human cathepsin K) turn out when Cc1c(-c2ccc(N3CCS(=O)(=O)CC3)cc2)c([C@@H]2CCCC[C@H]2C(=O)N[C@@H](C)C#N)nn1-c1ccc(F)cn1 [Example 66, (1R,2R)-N-((S)-1-cyanoethyl)-2-(4-(4-(1,1-dioxidothiomorpholino)phen-yl)-1-(5-fluoropyridin-2-yl)-5-methyl-1H-pyrazol-3-yl)cyclohexanecarboxamide] was run?
**A.** The IC50 was 3.6 nM.

**Q.** And the IC50 (human cathepsin F)?
**A.** The IC50 was 653 nM.

**Q.** Which IC50 (human cathepsin K) does the source give for N#Cc1cc(Cl)ccc1-n1cc(-c2ccc(N3CCS(=O)(=O)CC3)cc2)c([C@@H]2CCCC[C@H]2C(=O)NC2(C#N)CC2)n1 [Example 105, (1R,2R)-2-(1-(4-chloro-2-cyanophenyl)-4-(4-(1,1-dioxidothiomorpholino)phen-yl)-1H-pyrazol-3-yl)-N-(1-cyanocyclopropyl)cyclohex-anecarboxamide] here?
**A.** The IC50 was 3.23 nM.

**Q.** What about the IC50 (human cathepsin F) of the same molecule?
**A.** The IC50 was 1260 nM.

**Q.** What does the source list for CN=S1(=O)CCN(c2ccc(-c3cn(-c4ccc(F)cc4)nc3[C@@H]3CC[C@H](F)C[C@H]3C(=O)NC3(C#N)CC3)cc2)CC1 [Example 15, (1R,2R,5S)-N-(1-cyanocyclopropyl)-5-fluoro-2-(1-(4-fluorophenyl)-4-(4-(1-(methylimino)-1-oxidothiomorpholino)phenyl)-1H-pyrazol-3-yl)cyclohexanecarboxamide]?
**A.** IC50 (human cathepsin K): 3 nM; IC50 (human cathepsin F): 1780 nM

**Q.** With CC1(C)CC[C@@H](c2nn(-c3ccc(F)cc3)cc2-c2ccc(N3CCS(=O)(=O)CC3)cc2)[C@H](C(=O)NC2(C#N)CC2)C1 (single isomer, unassigned) [Example 127, (1S,2S) or (1R,2R)-N-(1-cyanocyclopropyl)-2-(4-(4-(1,1-dioxidothiomorpholino)phen-yl)-1-(4-fluorophenyl)-1H-pyrazol-3-yl)-5,5-dimethylcyclohexanecarbox-amide] as the molecule, how does the IC50 (human cathepsin K) read?
**A.** The IC50 was 1.5 nM.

**Q.** What about the IC50 (human cathepsin F) of the same molecule?
**A.** Its IC50 is 632 nM.

**Q.** With CC(C)[C@@H](C#N)NC(=O)[C@@H]1CC(F)(F)CC[C@H]1c1nn(-c2ccc(F)cc2)c(CO)c1-c1ccc(N2CCS(=O)(=O)CC2)cc1 [Example 63, (1R,2R)-N-((S)-1-cyano-2-methylpropyl)-2-(4-(4-(1,1-dioxidothiomorpholino)phen-yl)-1-(4-fluorophenyl)-5-(hydroxymethyl)-1H-pyrazol-3-yl)-5,5-difluorocyclohexanecarbox-amide] as the molecule, how does the IC50 (human cathepsin K) read?
**A.** Its IC50 is 1.98 nM.

**Q.** What about the IC50 (human cathepsin F) of the same molecule?
**A.** The IC50 was 98 nM.

**Q.** Which IC50 (human cathepsin K) does the source give for N#CC1(NC(=O)[C@@H]2CCCC[C@H]2c2nn(-c3ccccc3C(F)(F)F)cc2-c2ccc(N3CCS(=O)(=O)CC3)cc2)CC1 [Example 120, (1R,2R)-N-(1-cyanocyclopropyl)-2-(4-(4-(1,1-dioxidothiomorpholino)phen-yl)-1-(2-(trifluoromethyl)phenyl)-1H-pyrazol-3-yl)cyclohexanecarboxamide] here?
**A.** The IC50 was 6.72 nM.

**Q.** What about the IC50 (human cathepsin F) of the same molecule?
**A.** The IC50 was 3120 nM.

**Q.** CN=S1(=O)CCN(c2ccc(-c3cn(-c4ccc(F)cn4)nc3[C@@H]3CC[C@H](F)C[C@H]3C(=O)NC3(C#N)CC3)cc2)CC1 [Example 159, (1R,2R,5S)-N-(1-cyanocyclopropyl)-5-fluoro-2-(1-(5-fluoropyridin-2-yl)-4-(4-(1-(methylimino)-1-oxidothiomorpholino)phenyl)-1H-pyrazol-3-yl)cyclohexanecarboxamide] was tested. Which IC50 (human cathepsin K) did it give?
**A.** The IC50 was 3.22 nM.

**Q.** And the IC50 (human cathepsin F)?
**A.** The IC50 was 1410 nM.

**Q.** COc1ccc(-n2cc(-c3ccc(N4CCS(=O)(=O)CC4)cc3)c([C@@H]3CCCC[C@H]3C(=O)NC3(C#N)CC3)n2)cn1 [Example 168, (1R,2R)-N-(1-cyanocyclopropyl)-2-(4-(4-(1,1-dioxidothiomorpholino)phen-yl)-1-(6-methoxypyridin-3-yl)-1H-pyrazol-3-yl)cyclohexanecarboxamide] was tested. Which IC50 (human cathepsin K) did it give?
**A.** The IC50 was 2.4 nM.

**Q.** And the IC50 (human cathepsin F)?
**A.** The IC50 was 763 nM.
